According to ChEMBL document CHEMBL1131281, “Cyclopentanedi- and tricarboxylic acids as squalene synthase inhibitors: syntheses and evaluation” (Bioorg Med Chem Lett, 1998):

These compounds were tested against T1, Squalene synthase (Rattus norvegicus, UniProt Q02769) (assay: Percent inhibition of squalene synthase from rat liver microsomes using [3H]farnesyl pyrophosphate (FPP) as substrate; NA indicates <20% inhibition at 1 uM concentration).
T1 sequence (Q02769 whole entry): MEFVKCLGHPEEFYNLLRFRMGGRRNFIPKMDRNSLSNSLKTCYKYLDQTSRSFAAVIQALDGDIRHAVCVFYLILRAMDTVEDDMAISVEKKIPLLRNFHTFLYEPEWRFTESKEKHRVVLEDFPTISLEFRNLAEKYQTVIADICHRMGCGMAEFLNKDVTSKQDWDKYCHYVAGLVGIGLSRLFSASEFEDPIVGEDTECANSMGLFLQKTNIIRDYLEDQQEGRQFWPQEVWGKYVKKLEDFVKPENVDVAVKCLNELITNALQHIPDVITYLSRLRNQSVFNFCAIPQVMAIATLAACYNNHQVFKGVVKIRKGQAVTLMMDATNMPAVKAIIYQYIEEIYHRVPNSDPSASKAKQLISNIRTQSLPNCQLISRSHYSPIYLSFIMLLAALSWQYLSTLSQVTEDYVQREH
CCCN(Cc1ccc(Oc2ccccc2)cc1)C(=O)[C@H]1C[C@@H](C(=O)N(CCC)Cc2ccc(Oc3ccccc3)cc2)[C@](CC(=O)O)(C(=O)O)C1 was tested, and the IC50 was “Not Active”. CCCN(Cc1ccc(Oc2ccccc2)cc1)C(=O)[C@@H]1[C@H](C(=O)O)[C@@H](C(=O)N(CCC)Cc2ccc(Oc3ccccc3)cc2)O[C@H]1C(=O)O was tested, and the IC50 was “Not Active”.

These compounds were tested against T2, Squalene synthase (Rattus norvegicus) (UniProt Q02769) (assay: Percent inhibition of squalene synthase from rat liver microsomes using [3H]farnesyl pyrophosphate (FPP) as substrate at 1 uM concentration).
T2 sequence (whole entry): T1 sequence (Q02769 whole entry)
An inhibition of 24% was found for CCCN(Cc1ccc(Oc2ccccc2)cc1)C(=O)[C@@H]1[C@@H](C(=O)N(CCC)Cc2ccc(Oc3ccccc3)cc2)[C@@H](C(=O)O)C[C@@H]1C(=O)O in this work. An inhibition of 45% was found for CCCN(Cc1ccc(Oc2ccccc2)cc1)C(=O)[C@@H]1[C@@H](C(=O)N(CCC)Cc2ccc(Oc3ccccc3)cc2)[C@H](C(=O)O)C[C@@H]1C(=O)O in this work. An inhibition of 38% was found for CCCN(Cc1ccc(Oc2ccccc2)cc1)C(=O)[C@H]1C[C@@H](C(=O)N(CCC)Cc2ccc(Oc3ccccc3)cc2)[C@@](CC(=O)O)(C(=O)O)[C@@H]1C(=O)O in this work. An inhibition of 25% was found for CCCN(Cc1ccc(Oc2ccccc2)cc1)C(=O)[C@H]1C[C@@H](C(=O)N(CCC)Cc2ccc(Oc3ccccc3)cc2)[C@@](CC(=O)O)(C(=O)O)[C@H]1C(=O)O in this work. An inhibition of 44% was found for CCCN(Cc1ccc(Oc2ccccc2)cc1)C(=O)[C@H]1C[C@@H](C(=O)N(CCC)Cc2ccc(Oc3ccccc3)cc2)[C@@](CC(=O)O)(C(=O)O)C1 in this work.

Each compound was assayed against T1, Squalene synthase (assay: Compound was tested for inhibition of squalene synthase from rat liver microsomes using [3H]farnesyl pyrophosphate (FPP) as substrate).
An IC50 of 3000 nM was found for CCCN(Cc1ccc(Oc2ccccc2)cc1)C(=O)[C@H]1[C@@H](C(=O)O)[C@H](C(=O)O)O[C@@H]1C(=O)N(CCC)Cc1ccc(Oc2ccccc2)cc1 in this work. An IC50 of 240 nM was found for CCCN(Cc1ccc(Oc2ccccc2)cc1)C(=O)[C@H]1C[C@@H](C(=O)N(CCC)Cc2ccc(Oc3ccccc3)cc2)[C@](CC(=O)O)(C(=O)O)[C@H]1C(=O)O in this work. An IC50 of 170 nM was found for CCCN(Cc1ccc(Oc2ccccc2)cc1)C(=O)[C@H]1C[C@H](C(=O)N(CCC)Cc2ccc(Oc3ccccc3)cc2)[C@H](C(=O)O)[C@H]1C(=O)O in this work. An IC50 of 2900 nM was found for CCCN(Cc1ccc(Oc2ccccc2)cc1)C(=O)[C@H]1[C@@H](C(=O)O)[C@@H](C(=O)N(CCC)Cc2ccc(Oc3ccccc3)cc2)C[C@H]1C(=O)O in this work. An IC50 of 580 nM was found for CCCN(Cc1ccc(Oc2ccccc2)cc1)C(=O)[C@H]1C[C@@H](C(=O)N(CCC)Cc2ccc(Oc3ccccc3)cc2)[C@H](C(=O)O)[C@H]1C(=O)O in this work. An IC50 of 9100 nM was found for CCCN(Cc1ccc(Oc2ccccc2)cc1)C(=O)[C@@H]1[C@H](C(=O)N(CCC)Cc2ccc(Oc3ccccc3)cc2)[C@H](C(=O)O)C[C@@H]1C(=O)O in this work.
